The source of these data is patent US11613552B2, “Pharmaceutical agents, compositions, and methods relating thereto” (Alltech, Inc., priority 2017, dated 2023).

In one series the test system is Pdk1/Akt/Foxo1. Kind of series: Western blot of Pdk1/Akt/Foxo1 in skeletal muscles of Lepr^db/db mice. Format: in vivo, mouse. Conditions: 0.136 mg/kg ip daily, 52 days (FIG. 18). The method, then:
Male Lepr^db/db mice (C57BL/6J strain, purchased from The Jackson Laboratory) at 38 days of age were intraperitoneally injected daily with physiological saline ([…]) containing 0.2% DMSO or 0.136 mg of Compound #43 per kilogram body weight, diluted in the sterile physiological saline) for 52 days. After the treatment, gastrocnemius skeletal muscle samples were collected and stored at −80° C.
(§1) Frozen skeletal muscles were minced in sterile ice-old PBS containing complete proteinase and phosphatase inhibitors (Thermo-Fisher Scientific, Waltham, Mass.) and subjected to homogenization using a tissue homogenizer (Thermo-Fisher Scientific, Waltham, Mass.). These tissue homogenates were diluted in Themo-Fisher's RIPA buffer (1 part homogenate/2 part of RIPA buffer) containing complete proteinase/phosphatase inhibitors to extract the proteins. Proteins in the homogenates were extracted in RIPA buffer at 4° C. overnight. These overnight-extracted protein/tissue lysates were centrifuged at 12000×g for 30 min at 4° C., and the protein levels in the supernatant of these tissue lysates were determined using the Pierce Micro-BCA protein assay kit (Thermo Scientific-Piece Biotechnology, Rockford, Ill.) according to the manufacturer's protocol.
One hundred micrograms of skeletal muscle proteins were subjected to SDS-PAGE gel separation and then transferred to PVDF membranes, as described previously (Reddy et al. 2008 Science). Membranes were blocked in a phosphate-buffered saline (PBS) containing 5% (w/v) of bovine serum albumin (Sigma, St. Louis, Mo.) and incubated with specific primary antibodies followed by the incubation with HRP-conjugated anti-mouse or anti-rabbit secondary antibodies (1:5000 dilution, Cell Signaling Inc.). All primary antibodies were purchased from Cell Signaling Inc, except the antibodies against β-tubulin (LI-COR bioscience). Positive signals on the membrane blots were detected using Amersham's enhanced chemiluminescence Western Blotting Prime Detection reagents (GE Healthcare Lifescience, Pittsburgh, Pa.). Images of these luminescence signals on the membrane blots were captured using the LI-COR Odyssey Fc Image system (Lincoln, Nebr.). The same membrane blot was stripped and re-blotted with another antibody as described in the GE WB ECL-prime-detection protocol (GE healthcare Lifescience, Pittsburgh, Pa.). Protein band densities in the Western blots were determined using the NIH ImageJ software and then normalized by β-tubulin level in each sample. Data are presented as mean±SEM of 5 animal samples.

A further series concerns the target T1, Insrβ (Mus musculus, UniProt P15208).
T1 construct: gastrocnemius skeletal muscle and liver samples were collected and stored at −80° C; from tissue; host or cells: gastrocnemius skeletal muscle (A22) and liver (A24) of Lepr db/db mice
The series is described as follows: ELISA of phospho-Insrβ in livers of Lepr^db/db mice. Conditions: 0.136 mg/kg ip daily. Format: in vivo. The method, then:
Male Lepr^db/db mice (C57BL/6J strain, purchased from The Jackson Laboratory) at postnatal day 38 were intraperitoneally injected daily with physiological saline ([…]) containing 0.2% DMSO, or 0.136 mg of Compound #43 per kilogram body weight, diluted in the sterile physiological saline) for 52 days. After the treatment, gastrocnemius skeletal muscle and liver samples were collected and stored at −80° C.
as §1, with “muscle and liver tissues” for “muscles”, “Themo-Fisher's premade” for “Themo-Fisher's”, “protocol. […]” for “protocol.”
A general note: An ELISA detects its analyte on a solid surface through an enzyme-linked reagent.

A short description of series [1]: Body weight, gross morphology and walking behavior of treated Lepr^db/db mice. Format: in vivo. The protocol:
Body weights of the above treated mice were recorded daily using a balance and any visible abnormal animal gross morphology and walking behavior were monitored daily. After the treatments, animals were fasted overnight and then subjected to blood glucose or HbA1c assays, glucose tolerance tests or tissue collections.
After the treatments for 43 days, animals were fasted overnight and then subjected to blood glucose and glucose tolerance tests. After daily treatments of these compounds for 90 days, sera from these animals were collected and then subjected to blood HbA1c assays.

T1 sequence (P15208 753-1372 limits assumed): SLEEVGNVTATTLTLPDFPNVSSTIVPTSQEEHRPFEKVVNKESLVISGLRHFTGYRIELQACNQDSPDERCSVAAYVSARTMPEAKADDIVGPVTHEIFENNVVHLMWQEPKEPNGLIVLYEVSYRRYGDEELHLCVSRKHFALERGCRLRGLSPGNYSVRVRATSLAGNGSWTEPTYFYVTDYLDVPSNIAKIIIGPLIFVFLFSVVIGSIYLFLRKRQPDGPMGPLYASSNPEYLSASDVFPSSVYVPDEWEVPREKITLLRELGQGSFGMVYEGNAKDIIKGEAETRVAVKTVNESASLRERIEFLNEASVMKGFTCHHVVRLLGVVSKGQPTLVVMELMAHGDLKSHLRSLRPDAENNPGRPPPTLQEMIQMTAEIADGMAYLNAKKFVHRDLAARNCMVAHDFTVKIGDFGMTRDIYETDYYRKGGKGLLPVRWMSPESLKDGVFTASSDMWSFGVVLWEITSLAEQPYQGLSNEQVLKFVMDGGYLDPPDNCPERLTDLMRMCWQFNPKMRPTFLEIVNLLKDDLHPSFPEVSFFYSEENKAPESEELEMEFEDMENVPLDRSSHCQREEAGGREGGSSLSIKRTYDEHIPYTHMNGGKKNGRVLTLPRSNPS
T1 sequence (P15208 28-748 partner limits assumed): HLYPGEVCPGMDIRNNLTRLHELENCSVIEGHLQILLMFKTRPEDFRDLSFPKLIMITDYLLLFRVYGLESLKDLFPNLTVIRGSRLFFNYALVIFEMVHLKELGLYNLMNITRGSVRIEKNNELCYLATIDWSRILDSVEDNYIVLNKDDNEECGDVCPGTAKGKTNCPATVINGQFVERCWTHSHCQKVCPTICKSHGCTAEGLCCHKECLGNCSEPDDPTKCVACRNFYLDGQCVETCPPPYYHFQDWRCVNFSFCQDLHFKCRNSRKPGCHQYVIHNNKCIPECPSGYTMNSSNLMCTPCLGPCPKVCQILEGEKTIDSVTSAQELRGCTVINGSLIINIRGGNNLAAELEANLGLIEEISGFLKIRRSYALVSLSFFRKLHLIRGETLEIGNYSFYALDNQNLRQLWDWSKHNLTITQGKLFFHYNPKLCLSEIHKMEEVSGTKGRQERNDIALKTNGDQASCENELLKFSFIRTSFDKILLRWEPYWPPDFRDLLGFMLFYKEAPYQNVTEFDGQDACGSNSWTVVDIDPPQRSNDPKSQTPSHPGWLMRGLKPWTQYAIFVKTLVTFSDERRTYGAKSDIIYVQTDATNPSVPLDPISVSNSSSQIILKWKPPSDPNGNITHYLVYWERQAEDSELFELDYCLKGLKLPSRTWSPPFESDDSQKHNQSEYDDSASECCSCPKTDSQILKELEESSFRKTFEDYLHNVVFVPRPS

On to `C[Se]C[C@H]1O[C@@H](n2cnc3c(N)ncnc32)C(OC(C)=O)C1OC(C)=O` (stereo partly drawn) [Compound #43, Adenosine, 5′-Se-methyl-5′-selino-, 2′,3′-diacetate], for which, in the series on Pdk1/Akt/Foxo1, the “pAkt protein levels in skeletal muscle” value was “significantly elevated”; the “pFoxo1 protein levels in skeletal muscle” value is “significantly elevated”; the “total Akt and Foxo1 protein levels in skeletal muscle” value is listed as “no significant change”. The “pPdk1 protein levels in skeletal muscle” value in the series with Pdk1/Akt/Foxo1 (P=0.11) is “approached statistical significance”. Moreover, the “increase of phosphorylated Insrβ at Tyrosine 1146 in liver” value on Insrβ (52 days (FIG. 22A)) is roughly 2.9 fold. Besides, the “increase of phosphorylated Insrβ at Tyrosine 1150/1151 in liver” value on Insrβ (52 days (FIG. 22B)) is given as roughly 2.95 fold. Further, the “overt toxic effects (morphology, walking behavior, body weight)” value in series [1] (25 μg selenium or sulfur/kg ip daily, 3 months) is given as “no overt toxic effects”. Also, in series [1] (25 μg selenium/kg ip daily, 90 days, from 41 days of age), the “overt toxic effects (morphology, walking behavior, body weight)” value is listed as “no overt toxic effects”. Besides, the “visible toxic effects on gross morphological and walking behavior” value in series [1] (acute single ip injection, 0.0054-5.4 mg/kg) is recorded as “did not cause any visible toxic effects”.
